The text below walks through data of the NIST ThermoML archive (doi:10.1016/j.fluid.2014.12.027).

± gives the expanded uncertainty stated by the source.

The conditions of this data set: 298 K; 101.33 kPa; Liquid; Vibrating tube method.
`CCCCCCCCCC` [decane]: the mass density came out at 722.439 ± 0.28 kg/m3.

Consider `OCCOCCO` [diethylene glycol], for which the mass density turned out to be 1109.16 ± 0.34 kg/m3.

Consider `Cc1ccccc1` [toluene], for which the mass density stood at 857.606 ± 0.19 kg/m3.

As to `OCCOCCOCCO` [triethylene glycol], the mass density is given as 1116.05 ± 0.34 kg/m3.
